Laboratory results: PMC2918672 (Journal of molecular biology, 2010)
Square brackets hold non-standard residues; d marks the D form. Ends that are not written are not given here. Sta = CC(C)C[C@H](N)[C@@H](O)CC(=O)O

System: L40I mutant HTLV-1 PR
Experiment: Inhibition of L40I mutant HTLV-1 PR, fluorescent substrate cleavage
Assay type: biochemical, Human T-cell leukemia virus type 1 (HTLV-1)
Details: test compound 50 nM; L40I mutant HTLV-1 PR 1 μg in 50 μL reaction mixture (as a dimer); substrate H-Lys([7-methoxycoumarin-4-yl]acetyl)-APQVL-(p-nitrophenylalanine)-VMHPL-OH; inverse percentage of remaining activity; single determination

Q: For Ac-APQV[Sta]VMHP [Statine Inhibitor], which “Percent inhibition (%) at 50 nM” value is on record?
A: The value was 19%.
